Laboratory results published in patent US20060293187A1, “Herbicidal mixtures based on 3-phenyluracils” (BASF Aktiengesellschaft, priority 2003, published 2006).

Key:
Assay type in all cases: in vivo
Details in all cases: 21 days, 0 = no damage, 100 = complete destruction
Alopecurus myosuroides = experiment: Greenhouse experiment, herbicidal activity, post-emergence method
Excerpt: (§1) For the post-emergence treatment, the test plants were first grown to a height of 3 to 20 cm, depending on the plant habit, and only then treated. Here, the herbicidal compositions were suspended or emulsified in water as distribution medium and sprayed using finely distributing nozzles.
(§2) The respective components I and B and/or C were formulated as 10% by weight strength emulsion concentrate and introduced to the spray liquor with the amount of solvent system used for applying the active compound. In the examples, the solvent used was water.
(§3) The test period extended over 21 days. During this time, the plants were tended, and their response to the treatments with active compound was evaluated.
(§4) The evaluation for the damage caused by the chemical compositions was carried out using a scale from 0 to 100%, compared to the untreated control plants. Here, 0 means no damage and 100 means complete destruction of the plants.
(§5) In the examples below, the value E which is to be expected if the activity of the individual compounds is just additive was calculated using the method of S. R. Colby (1967) “Calculating synergistic and antagonistic responses of herbicide combinations”, Weeds 15, p. 22 ff. E=X+Y−(X·Y/100) where
(§6) X=effect in percent using active compound I at an application rate a;
(§7) Y=effect in percent using active compound B at an application rate b;
(§8) E=expected effect (in %) of I+B at application rates a+b.
(§9) If the value […] in this manner is higher than the value E calculated according to Colby, a synergistic effect is present.

Echinocloa crus-galli = experiment: as above
Excerpt: as §1, §2, §3, §4, §5, §6, §7, §8, §9

Amaranthus retroflexus = experiment: Greenhouse experiment, herbicidal activity, pre-emergence method
Experimental: as §2, §3, §4, §5, §6, §7, §8, §9

[1] = application rate 1.95 g/ha of each active compound applied (mixture 1.95 + 1.95 g/ha)
[2] = application rate 0.98 g/ha of each active compound applied (mixture 0.98 + 0.98 g/ha)

Molecule	Herbicidal activity against Alopecurus myosuroides, found (Alopecurus myosuroides; [1]) [%]	Herbicidal activity against Alopecurus myosuroides, found (Alopecurus myosuroides; application rate 3.91 g/ha of each active compound applied (mixture 3.91 + 3.91 g/ha)) [%]	Herbicidal activity against Echinocloa crus-galli, found (Echinocloa crus-galli; [2]) [%]	Herbicidal activity against Echinocloa crus-galli, found (Echinocloa crus-galli; [1]) [%]	Herbicidal activity against Amaranthus retroflexus, found (Amaranthus retroflexus; [2]) [%]	Herbicidal activity against Amaranthus retroflexus, found (Amaranthus retroflexus; [1]) [%]
4-Hydroxy-3-{[2-methoxyethoxy)methyl-6-(trifluormethyl)-3-pyridinyl]carbonyl}bicyclo[3.2.1]oct-3-en-2-one [B.2]	0	0				
Cc1nc(C(F)(F)F)ccc1C(=O)C1=C(O)C2CCC(C2)C1=O (stereo not drawn) [B.1, 4-Hydroxy-3-{[2-methyl-6-(triflurmethyl)-3-pyridinyl]carbonyl}ci-cyclo[3.2.1]oct-3-en-2-one]			30	60	0	20
